Test [1] addresses T1, human LXRβ (Homo sapiens, UniProt P55055).
T1 construct: biotin (biotinylated); made in house; host or cells: E. coli
T1 sequence (P55055 1-460): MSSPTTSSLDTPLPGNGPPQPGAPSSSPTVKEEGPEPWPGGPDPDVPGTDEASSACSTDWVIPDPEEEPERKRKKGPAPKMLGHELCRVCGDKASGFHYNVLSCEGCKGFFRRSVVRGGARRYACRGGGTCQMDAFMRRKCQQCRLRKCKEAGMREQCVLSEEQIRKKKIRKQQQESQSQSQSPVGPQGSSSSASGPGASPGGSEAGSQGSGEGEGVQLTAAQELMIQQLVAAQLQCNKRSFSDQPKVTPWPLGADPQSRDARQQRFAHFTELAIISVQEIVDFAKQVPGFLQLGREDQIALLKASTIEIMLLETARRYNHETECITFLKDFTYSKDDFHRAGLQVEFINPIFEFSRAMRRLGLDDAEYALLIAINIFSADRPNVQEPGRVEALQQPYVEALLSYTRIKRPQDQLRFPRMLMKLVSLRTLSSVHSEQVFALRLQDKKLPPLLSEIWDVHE
The experiment in a line: Ligand-binding test procedure for human LXRβ (3H T0901317 tracer, flash plates). The conditions noted are these: competition with 3H T0901317; read-out: hLXRb binding IC50. As to the method: I. Ligand-Binding Test Procedure for Human LXRβ.
• Buffer: 100 mM KCl, 100 mM TRIS (pH 7.4 at +4° C.), 8.6% glycerol, 0.1 mM PMSF*, 2 mM MTG*, 0.2% CHAPS (* not used in wash buffer) • Tracer: ^3H T0901317 • Receptor source: E. coli extracted from cells expressing biotinylated hLXRβ. Extract was made in a similar buffer as above, but with 50 mM TRIS.
• Washed streptavidin and coated flash plates with wash buffer. • Diluted receptor extract to give Bmax˜4000 cpm and add to the wells. • Wrapped the plates in aluminum foil and stored them at +4° C. overnight.
(§1) • Made a dilution series in DMSO of the test ligands. • Made a 5 nM solution of the radioactive tracer in buffer. • Mixed 2500 diluted tracer with 50 of the test ligand from each concentration of the dilution series. • Washed the receptor-coated flash plates. • Added 2000 per well of the ligand/radiolabel mixture to the receptor-coated flash plates. • Wrapped the plates in aluminum foil and incubate at +4° C. over night.
• Aspirated wells, and washed the flashed plates. Sealed the plate. • Measured the remaining radioactivity in the plate.

In test [2] the target is T2, human LXRα (Homo sapiens, UniProt Q13133).
T2 construct: biotin (biotinylated); made in house; host or cells: E. coli
T2 sequence (Q13133 1-447): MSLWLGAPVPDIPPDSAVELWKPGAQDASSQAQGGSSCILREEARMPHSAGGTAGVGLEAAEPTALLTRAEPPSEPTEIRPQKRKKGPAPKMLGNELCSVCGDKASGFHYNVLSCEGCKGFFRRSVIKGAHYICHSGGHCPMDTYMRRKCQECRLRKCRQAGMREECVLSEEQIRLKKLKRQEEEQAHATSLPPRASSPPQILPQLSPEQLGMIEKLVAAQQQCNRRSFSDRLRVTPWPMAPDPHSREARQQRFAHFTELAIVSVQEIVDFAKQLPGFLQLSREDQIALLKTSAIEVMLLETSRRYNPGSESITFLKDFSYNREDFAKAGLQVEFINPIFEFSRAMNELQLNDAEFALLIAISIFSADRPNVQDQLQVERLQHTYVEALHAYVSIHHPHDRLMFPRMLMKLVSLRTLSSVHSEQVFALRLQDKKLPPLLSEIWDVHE
The experiment in a line: Ligand-binding test procedure for human LXRα (3H T0901317 tracer, flash plates). The conditions noted are these: competition with 3H T0901317; read-out: hLXRa binding IC50. How it is done:
II. Ligand-Binding Test Procedure for Human LXRa.
• Buffer: 100 mM KCl, 100 mM TRIS (pH 7.4 at +4° C.), 8.6% glycerol, 0.1 mM PMSF*, 2 mM MTG*, 0.2% CHAPS (* not used in wash buffer) • Tracer: ^3H T0901317 • Receptor source: E. coli extract from cells expressing biotinylated hLXRα. Extract was made in a similar buffer as above, but with 50 mM TRIS.
• Washed streptavidin and coated flash plates with wash buffer. • Diluted receptor extract to give Bmax˜4000 cpm and add to the wells. • Wrapped the plates in aluminum foil and stored them at +4° C. over night.
as §1
• Aspirated wells, and wash the flashed plates. Sealed the plate. • Measured the remaining radioactivity in the plate.

Turning to `CS(=O)(=O)c1cc(Oc2ccc(Cl)c(-c3ncnc4c(Cl)cccc34)c2)ccc1C#N` [Example 1, 4-[4-chloro-3-(8-chloroquinazolin-4-yl)phenoxy]-2-(methylsulfonyl)benzonitrile], the IC50 in test [1] was 0.329 µM; in test [2] it was 3.13 µM.

Regarding `CS(=O)(=O)c1cc(Oc2ccc(Cl)c(-c3ncnc4c(C(F)(F)F)cccc34)c2)ccc1C#N` [Example 2, 4-{4-chloro-3-[8-(trifluoromethyl)quinazolin-4-yl]phenoxy}-2-(methylsulfonyl)benzonitrile], the values for the concentration for half-maximal inhibition (IC50) in test [1] and in test [2] were 0.152 µM and 1.06 µM, respectively. Consider `CS(=O)(=O)c1cc(Oc2ccc(Cl)c(-c3ncnc4c(Cl)cccc34)c2)ccc1C(N)=O` [Example 6, 4-[4-chloro-3-(8-chloroquinazolin-4-yl)phenoxy]-2-(methylsulfonyl)benzamide], for which the results for the half-maximal inhibitory concentration (IC50) in test [1] and in test [2] were 1.26 µM and 3.84 µM, respectively. In the case of `CS(=O)(=O)c1cc(Oc2ccc(Cl)c(-c3ncnc4c(C(F)(F)F)cccc34)c2)ccc1C(N)=O` [Example 7, 4-{4-chloro-3-[8-(trifluoromethyl)quinazolin-4-yl]phenoxy}-2-(methylsulfonyl)benzamide], the figures for the IC50 in test [1] and in test [2] were 0.288 µM and 0.986 µM, respectively. On the same counts, the results for `N#CCS(=O)(=O)c1cccc(Oc2ccc(F)c(-c3ncnc4c(Cl)cccc34)c2)c1` [Example 10, ({3-[3-(8-chloroquinazolin-4-yl)-4-fluorophenoxy]phenyl}sulfonyl)acetonitrile] are 0.286 µM and 1.53 µM. The corresponding values for `NS(=O)(=O)c1cccc(Oc2ccc(F)c(-c3ncnc4c(Cl)cccc34)c2)c1` [Example 20, 3-[3-(8-chloroquinazolin-4-yl)-4-fluorophenoxy]benzenesulfonamide] are 0.336 µM and 2.88 µM.

For the compound `NC(=O)CCCS(=O)(=O)c1cccc(Oc2ccc(F)c(-c3ncnc4c(C(F)(F)F)cccc34)c2)c1` [Example 26, 4-[(3-{4-fluoro-3-[8-(trifluoromethyl)quinazolin-4-yl]phenoxy}phenyl)sulfonyl]butanamide], the IC50 amounted to 0.184 µM in test [1] and 2.48 µM in test [2]. On the same counts, the results for `O=C(O)CCCS(=O)(=O)c1cccc(Oc2ccc(F)c(-c3ncnc4c(C(F)(F)F)cccc34)c2)c1` [Example 27, 4-[(3-{4-fluoro-3-[8-(trifluoromethyl)quinazolin-4-yl]phenoxy}phenyl)sulfonyl]butanoic acid] are 1.2 µM and 16.7 µM. The corresponding values for `CS(=O)(=O)NCCCS(=O)(=O)c1cccc(Oc2ccc(F)c(-c3ncnc4c(C(F)(F)F)cccc34)c2)c1` [Example 29, N-{3-[(3-{4-fluoro-3-[8-(trifluoromethyl)quinazolin-4-yl]phenoxy}phenyl)sulfonyl]propyl}-methanesulfonamide] are 0.157 µM and 1.33 µM. On the same counts, the results for `NC(=O)CCCCS(=O)(=O)c1cccc(Oc2ccc(F)c(-c3ncnc4c(C(F)(F)F)cccc34)c2)c1` [Example 33, 5-[(3-{4-fluoro-3-[8-(trifluoromethyl)quinazolin-4-yl]phenoxy}phenyl)sulfonyl]pentanamide] are 0.13 µM and 1.35 µM. Consider `O=C(O)CCCCS(=O)(=O)c1cccc(Oc2ccc(F)c(-c3ncnc4c(C(F)(F)F)cccc34)c2)c1` [Example 34, 5-[(3-{4-fluoro-3-[8-(trifluoromethyl)quinazolin-4-yl]phenoxy}phenyl)sulfonyl]pentanoic acid], for which the IC50 amounted to 1.43 µM in test [1] and 11.9 µM in test [2]. In the case of `NCCCCS(=O)(=O)c1cccc(Oc2ccc(F)c(-c3ncnc4c(C(F)(F)F)cccc34)c2)c1` [Example 35, 4-[(3-{4-fluoro-3-[8-(trifluoromethyl)quinazolin-4-yl]phenoxy}phenyl)sulfonyl]butan-1-amine], the IC50 came out at 0.584 µM in test [1] and 9.42 µM in test [2]. On the same counts, the results for `CS(=O)(=O)NCCCCS(=O)(=O)c1cccc(Oc2ccc(F)c(-c3ncnc4c(C(F)(F)F)cccc34)c2)c1` [Example 36, N-{4-[(3-{4-fluoro-3-[8-(trifluoromethyl)quinazolin-4-yl]phenoxy}phenyl)sulfonyl]butyl]methanesulfonamide] are 0.221 µM and 2.73 µM.

Turning to `CS(=O)(=O)c1cc(Oc2ccc(F)c(-c3ncnc4c(C(F)(F)F)cccc34)c2)ccc1C#N` [Example 38, 4-{4-fluoro-3-[8-(trifluoromethyl)quinazolin-4-yl]phenoxy}-2-(methylsulfonyl)benzonitrile], the IC50 was found to be 0.506 µM in test [1] and 4.1 µM in test [2]. As to `CS(=O)(=O)c1cc(Oc2ccc(F)c(-c3ncnc4c(C(F)(F)F)cccc34)c2)ccc1C(N)=O` [Example 39, 4-{4-fluoro-3-[8-(trifluoromethyl)quinazolin-4-yl]phenoxy}-2-(methylsulfonyl)benzamide], the results for the IC50 in test [1] and in test [2] were 1.21 µM and 4.37 µM, respectively. As for `CS(=O)(=O)c1cc(Oc2ccc(F)c(-c3ncnc4c(Cl)cccc34)c2)ccc1C#N` [Example 41, 4-[3-(8-chloroquinazolin-4-yl)-4-fluorophenoxy]-2-(methylsulfonyl)benzonitrile], the IC50 in test [1] stood at 1.06 µM. With `CS(=O)(=O)c1cc(Oc2ccc(F)c(-c3ncnc4c(Cl)cccc34)c2)ccc1C(N)=O` [Example 42, 4-[3-(8-chloroquinazolin-4-yl)-4-fluorophenoxy]-2-(methylsulfonyl)benzamide], the IC50 in test [1] amounted to 4.9 µM; in test [2] it was 10.9 µM. Consider `CNCCCCS(=O)(=O)c1cccc(Oc2ccc(F)c(-c3ncnc4c(Cl)cccc34)c2)c1` [Example 43, 4-({3-[3-(8-chloroquinazolin-4-yl)-4-fluorophenoxy]phenyl}sulfonyl)-N-methylbutan-1-amine], for which the IC50 in test [1] worked out at 3.59 µM. As for `CNCCCS(=O)(=O)c1cccc(Oc2ccc(F)c(-c3ncnc4c(Cl)cccc34)c2)c1` [Example 44, 3-({3-[3-(8-chloroquinazolin-4-yl)-4-fluorophenoxy]phenyl}sulfonyl)-N-methylpropan-1-amine], the IC50 was 0.965 µM in test [1] and 7.31 µM in test [2]. Take `CN(CCCCS(=O)(=O)c1cccc(Oc2ccc(F)c(-c3ncnc4c(Cl)cccc34)c2)c1)S(C)(=O)=O` [Example 48, N-[4-({3-[3-(8-chloroquinazolin-4-yl)-4-fluorophenoxy]phenyl}sulfonyl)butyl]-N-methylmethanesulfonamide]: in test [1], the IC50 is 1.02 µM.

For the compound `CN(CCCS(=O)(=O)c1cccc(Oc2ccc(F)c(-c3ncnc4c(Cl)cccc34)c2)c1)S(C)(=O)=O` [Example 49, N-[3-({3-[3-(8-chloroquinazolin-4-yl)-4-fluorophenoxy]phenyl}sulfonyl)propyl]-N-methylmethanesulfonamide], the IC50 in test [1] was determined as 1.99 µM. As for `O=C(O)CCCCS(=O)(=O)c1cccc(Oc2ccc(F)c(-c3ncnc4c(Cl)cccc34)c2)c1` [Example 56, 5-({3-[3-(8-chloroquinazolin-4-yl)-4-fluorophenoxy]phenyl}sulfonyl)pentanoic acid], the half-inhibitory concentration (IC50) in test [1] was determined as 3.43 µM. On to `O=C(O)CCCS(=O)(=O)c1cccc(Oc2ccc(F)c(-c3ncnc4c(Cl)cccc34)c2)c1` [Example 57, 4-({3-[3-(8-chloroquinazolin-4-yl)-4-fluorophenoxy]phenyl}sulfonyl)butanoic acid], for which, in test [1], the IC50 was determined as 4.21 µM.

For the origin of these results see patent US20100184786A1, “Polar Quinazolines” (Wyeth LLC, priority 2008, published 2010).
